The results in this text go back to ChEMBL document CHEMBL1201862, “PubChem BioAssay data set” (2004).

Structures are written as SMILES.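 These data come from cells grown in 96-well plates and exposed to compound for 48 hours at five concentrations. GI50: concentration for 50% inhibition of growth.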 Calls of active or inactive are those of the source. Rule as the data show it: active = GI50 up to about 1.1 µM and inactive = higher. Some results are limits rather than exact numbers.

Test systems include SW-620; OVCAR-8; SF-268; UO-31; A549; LOX IMVI; OVCAR-5; RXF 393; SNB-19; NCI-H226; SF-539; MDA-MB-231; A498; EKVX; NCI-H23; COLO 205; UACC-62; HOP-62; SNB-75; SK-OV-3.
What all share (test): NCI anticancer screen, dose series, 48 h

For `N=C(N)N/N=C/c1c(-c2ccc(Cl)c([N+](=O)[O-])c2)nc2sc(Cl)cn12`, the GI50 in the assay with SW-620 was 2.2 µM (inactive); in the assay on OVCAR-8, 1.77 µM (inactive); in the assay on SF-268, 2.68 µM (inactive); with UO-31, 1.84 µM (inactive); with A549, 2.47 µM (inactive); with LOX IMVI, 2.44 µM (inactive). In addition, the GI50 with OVCAR-5 was 4.17 µM (inactive); in the assay on RXF 393 it was 1.77 µM (inactive); with SNB-19, 1.79 µM (inactive); in the assay on NCI-H226 it was 41.4 µM (inactive); in the assay with SF-539 it was 2.3 µM (inactive); with MDA-MB-231, 1.97 µM (inactive). The GI50 in the assay on A498 was 1.95 µM (inactive); in the assay on EKVX, 2.83 µM (inactive); in the assay with NCI-H23, 3.68 µM (inactive); with COLO 205 it was 1.64 µM (inactive); with UACC-62, 1.95 µM (inactive); in the assay on HOP-62, 3.85 µM (inactive).
For `COC(=O)C1CCC(=O)N1C(c1ccc(OC)cc1)c1ccc2c(c1)OCO2` (stereo unspecified), the GI50 was 33.5 µM (inactive) in the assay with SW-620; 48.9 µM (inactive) in the assay with OVCAR-8; 53.6 µM (inactive) with SF-268; 27.5 µM (inactive) in the assay on UO-31; 47.5 µM (inactive) in the assay on A549; 20.2 µM (inactive) in the assay on SNB-75. The GI50 was 50.4 µM (inactive) with LOX IMVI; 50 µM (inactive) with OVCAR-5; 37.2 µM (inactive) in the assay on SNB-19; 67.3 µM (inactive) in the assay on NCI-H226; 32.9 µM (inactive) in the assay with SF-539; > 100 µM (inactive) with MDA-MB-231. The GI50 in the assay on A498 was 58.6 µM (inactive); in the assay with EKVX, > 100 µM (inactive); with NCI-H23, 82.8 µM (inactive); with COLO 205 it was 37.9 µM (inactive); with SK-OV-3, 59.4 µM (inactive); with UACC-62, 32.7 µM (inactive). In the assay with HOP-62, the GI50 was 53.2 µM (inactive).
As for `COc1cc2cc(C(=O)N3C[C@@H](CCl)c4c3cc(N)c3ccccc43)[nH]c2c(OC)c1OC`, the GI50 was 0.00201 µM (active) in the assay on SW-620; 0.00451 µM (active) in the assay with OVCAR-8; 0.119 µM (active) in the assay with SF-268; 0.00622 µM (active) in the assay on UO-31; 0.00546 µM (active) in the assay with A549; < 0.01 µM (active) with SNB-75. Further, the GI50 was 0.00313 µM (active) with LOX IMVI; < 0.01 µM (active) in the assay with OVCAR-5; 0.00157 µM (active) with RXF 393; 0.00665 µM (active) in the assay on SNB-19; 0.00213 µM (active) in the assay with SF-539; 0.00172 µM (active) in the assay on MDA-MB-231. Also, the GI50 is 0.00863 µM (active) in the assay on A498; 0.231 µM (active) with EKVX; 0.0138 µM (active) with NCI-H23; 0.0776 µM (active) with COLO 205; 0.00457 µM (active) in the assay with SK-OV-3; 0.000895 µM (active) in the assay with UACC-62. Moreover, in the assay on HOP-62, the GI50 is 0.00755 µM (active).
Turning to `COC(=O)C(CCCCNC(=O)CNC(=O)OCc1ccccc1)NC(=O)C(CCCCNC(=O)CNC(=O)OCc1ccccc1)NC(=O)OCc1ccccc1` (stereo unspecified), the GI50 is > 100 µM (inactive) with SW-620; 57.3 µM (inactive) in the assay with OVCAR-8; 78 µM (inactive) in the assay on SF-268; > 100 µM (inactive) with UO-31; > 100 µM (inactive) with A549; 62.7 µM (inactive) in the assay on SNB-75. Moreover, the GI50 with LOX IMVI was 87.9 µM (inactive); in the assay with OVCAR-5 it was > 100 µM (inactive); in the assay on SNB-19 it was 93.3 µM (inactive); in the assay on NCI-H226, > 100 µM (inactive); in the assay on MDA-MB-231, > 100 µM (inactive); in the assay on A498 it was > 100 µM (inactive). Further, the GI50 was > 100 µM (inactive) with NCI-H23, 40 µM (inactive) with UACC-62 and > 100 µM (inactive) in the assay on HOP-62.
Regarding `Cc1n[nH]c(=O)n1N=C(c1ccccc1)c1ccccc1`, the GI50 in the assay with SW-620, in the assay with OVCAR-8, in the assay on SF-268, with UO-31, with A549 and in the assay on LOX IMVI was > 100 µM (inactive) each time. The GI50 is > 100 µM (inactive) in the assay on OVCAR-5; 1.26 µM (inactive) with RXF 393; > 100 µM (inactive) with SNB-19; > 100 µM (inactive) in the assay with NCI-H226; > 100 µM (inactive) in the assay with MDA-MB-231; > 100 µM (inactive) in the assay with A498. Moreover, the GI50 in the assay with EKVX, in the assay with NCI-H23, in the assay on COLO 205, in the assay with UACC-62 and with HOP-62 was > 100 µM (inactive) each time.
For the compound `COc1cc2c(cc1OC)C1=C(C=O)c3ccc(OC)c(OC)c3C(O)N1CC2` (stereo unspecified), the GI50 was 37.2 µM (inactive) in the assay with SW-620; 27.5 µM (inactive) with SF-268; 37.5 µM (inactive) with UO-31; 22.7 µM (inactive) in the assay on A549; 4.75 µM (inactive) with SNB-75; 31.7 µM (inactive) in the assay on OVCAR-5. Moreover, the GI50 in the assay on SNB-19 was 26.2 µM (inactive); in the assay on NCI-H226 it was 66.5 µM (inactive); with SF-539 it was 12.9 µM (inactive); with MDA-MB-231, 16.3 µM (inactive); in the assay on A498 it was 21.8 µM (inactive); with EKVX, 21.6 µM (inactive). The GI50 in the assay on NCI-H23 was 24.8 µM (inactive); in the assay with COLO 205, 20.7 µM (inactive); in the assay with SK-OV-3, 65.8 µM (inactive); with UACC-62, 13.8 µM (inactive); in the assay with HOP-62, 39.7 µM (inactive).
Take `CN(C)CC1CN=C(N)O1` (stereo unspecified): the GI50 in the assay with SW-620, in the assay on SF-268, in the assay with UO-31, in the assay with A549, in the assay with LOX IMVI and in the assay on OVCAR-5 was > 100 µM (inactive) in each case. In addition, the GI50 in the assay with RXF 393, in the assay on SNB-19, in the assay with NCI-H226, in the assay on SF-539, with MDA-MB-231 and with A498 was > 100 µM (inactive) each time. For the same compound, the GI50 in the assay with EKVX, with NCI-H23, in the assay with COLO 205, in the assay on SK-OV-3, in the assay on UACC-62 and in the assay with HOP-62 was > 100 µM (inactive) throughout.
`CN1C(=O)C2(C)SC1(c1ccccc1)C1C(=O)N(c3ccccc3)C(=O)C12` (stereo unspecified): the GI50 in the assay with SW-620 is > 100 µM (inactive); in the assay with OVCAR-8, > 100 µM (inactive); with SF-268, > 100 µM (inactive); in the assay on UO-31 it was > 100 µM (inactive); with A549, 49.8 µM (inactive); in the assay with LOX IMVI, > 100 µM (inactive). The GI50 in the assay on OVCAR-5 was > 100 µM (inactive); with RXF 393 it was > 100 µM (inactive); in the assay on SNB-19, > 100 µM (inactive); in the assay on NCI-H226 it was 60.4 µM (inactive); with SF-539 it was > 100 µM (inactive); with MDA-MB-231, > 100 µM (inactive). The GI50 with A498 is 49.9 µM (inactive); in the assay with EKVX, 98.9 µM (inactive); in the assay on NCI-H23 it was > 100 µM (inactive); in the assay on COLO 205, 67.9 µM (inactive); with SK-OV-3, > 100 µM (inactive); in the assay on UACC-62, 65.3 µM (inactive). The GI50 in the assay with HOP-62 is > 100 µM (inactive).
With `O=C(COc1ccc(OCC(=O)NNC2=NC(c3cc(F)c(Cl)cc3Cl)CS2)c(Cl)c1)NNC1=NC(c2cc(F)c(Cl)cc2Cl)CS1` (stereo unspecified), the GI50 in the assay on SW-620 was 30.6 µM (inactive); with OVCAR-8 it was 20.8 µM (inactive); in the assay with UO-31 it was > 100 µM (inactive); with A549 it was 14.3 µM (inactive); in the assay on LOX IMVI, 1.04 µM (active); in the assay on OVCAR-5, 36.7 µM (inactive). The GI50 is 19.8 µM (inactive) in the assay on RXF 393; 42.5 µM (inactive) with SNB-19; 19.1 µM (inactive) in the assay on NCI-H226; 28.6 µM (inactive) with SF-539; 20 µM (inactive) in the assay with MDA-MB-231; 23.7 µM (inactive) in the assay with A498. The GI50 in the assay with EKVX was 20.8 µM (inactive); with NCI-H23, 20.2 µM (inactive); in the assay with COLO 205 it was 34.2 µM (inactive); with SK-OV-3, > 100 µM (inactive); in the assay with UACC-62, 18.6 µM (inactive); with HOP-62, > 100 µM (inactive).
Consider `CN(CCCN=C=S)CCCN1c2ccccc2CCc2ccccc21`, for which the GI50 in the assay on SW-620 is 2.23 µM (inactive); in the assay on OVCAR-8, 1.78 µM (inactive); in the assay on SF-268, 1.71 µM (inactive); in the assay with UO-31, 1.62 µM (inactive); in the assay on A549 it was 1.71 µM (inactive); in the assay on LOX IMVI it was 1.88 µM (inactive). In addition, the GI50 is 1.81 µM (inactive) with OVCAR-5; 1.92 µM (inactive) in the assay with RXF 393; 1.72 µM (inactive) with SNB-19; 2.04 µM (inactive) with NCI-H226; 1.76 µM (inactive) with SF-539; 1.8 µM (inactive) in the assay with MDA-MB-231. Also, the GI50 was 1.66 µM (inactive) with A498; 1.88 µM (inactive) in the assay with EKVX; 1.64 µM (inactive) in the assay with NCI-H23; 1.66 µM (inactive) with COLO 205; 1.63 µM (inactive) with SK-OV-3; 1.79 µM (inactive) in the assay with UACC-62. The GI50 with HOP-62 was 1.83 µM (inactive).
Turning to `Cc1ccc(/C=C/C(=O)c2cc(CN(C)C)c(O)c(CN(C)C)c2)cc1`, the GI50 with SW-620 was 16.1 µM (inactive); in the assay with OVCAR-8 it was 21.3 µM (inactive); with SF-268 it was 25.9 µM (inactive); in the assay with UO-31 it was 15.7 µM (inactive); with A549, 18.8 µM (inactive); in the assay with SNB-75, 24.4 µM (inactive). For the same compound, the GI50 was 6.65 µM (inactive) in the assay with LOX IMVI; 66.8 µM (inactive) in the assay with OVCAR-5; 18.7 µM (inactive) in the assay on RXF 393; 22.5 µM (inactive) in the assay with NCI-H226; 16.6 µM (inactive) with SF-539; 13.8 µM (inactive) in the assay on MDA-MB-231. Further, the GI50 in the assay with A498 is 25.2 µM (inactive); with EKVX, 25.7 µM (inactive); in the assay on NCI-H23 it was 29 µM (inactive); in the assay with COLO 205, 10.6 µM (inactive); in the assay on HOP-62, 16.5 µM (inactive).
